pIC50: −log10 of the molar value. Read-outs that look alike come from different tables or passages of the source.
What was measured:
[1] = target: CDK2/CCNE1 (Homo sapiens, UniProt P24941); assay: CDK2 homogeneous time-resolved fluorescence (HTRF) kinase assay; type: biochemical; settings: CDK2/CCNE
Method: (§1) A CDK homogeneous time-resolved fluorescence (HTRF) assay was used to assess the potency of the compounds described herein.
(§2) To an untreated 384-well microtiter plate (ProxiPlate) was added 100 nL 100×test compound in DMSO and 5 μL 2×CDK enzyme in assay buffer (50 mM HEPES, 1 mM EGTA, 10 mM MgCl2, 0.01% Tween 20, 2 mM DTT). The plate was centrifuged at 800 RPM for 1 min then incubated for 20 min at 23 °C. 2.5 μL per well of 4×ATP and 2.5 μL 4×ULight™-eIF4E-binding protein 1 (Thr37/46) Peptide substrate were added to all wells. After addition, the plates were centrifuged at 800 RPM for 1 min. The plates were incubated at 23 °C for 60 min. 5 μL per well 4×EDTA solution were added to each well to stop the reaction. 5 μL 4×LANCE Ultra Europium-anti-phospho-eIF4E-binding protein 1 (Thr37/46) antibody were added to each well and the plate was centrifuged for 1 min at 800 RPM. The plate was incubated for 60 min at 23 °C. Fluorescence was read at 340 nm excitation and 665 nm emission on an En Vision 2105 fluorescence reader. The final concentrations of reagents in the activity assay were 3 nM CDK2/CCNE1, 1 mM ATP, 50 nM ULight™-eIF4E-binding protein 1 (Thr37/46) Peptide substrate, 1% DMSO, 10 mM EDTA, and 2 nM LANCE Ultra Europium-anti-phospho-eIF4E-binding protein 1 (Thr37/46).
(§3) Dose-response titrations were conducted by using an 11-point, half-logarithmic serial dilution scheme typically starting at 10 μM. Signals were reported as fluorescence units at 665 nm or the ratio of fluorescence units at 665 nm/fluorescence units at 615 nm. Signals are referred to below as “Lance signals”.
(§4) Using this assay, the IC50 values of example compounds were determined. Table 3 illustrates the IC50 for various Example compounds of Formula IA. Table 4 illustrates the IC50 for various other Example compounds of Formula I. ND=not determined.

[2] = target: CDK1/CCNB1 (Homo sapiens, UniProt P06493); assay: CDK1 homogeneous time-resolved fluorescence (HTRF) kinase assay; type: biochemical; settings: CDK1/CCNB
Chain of CDK1/CCNB1 (P06493 whole entry): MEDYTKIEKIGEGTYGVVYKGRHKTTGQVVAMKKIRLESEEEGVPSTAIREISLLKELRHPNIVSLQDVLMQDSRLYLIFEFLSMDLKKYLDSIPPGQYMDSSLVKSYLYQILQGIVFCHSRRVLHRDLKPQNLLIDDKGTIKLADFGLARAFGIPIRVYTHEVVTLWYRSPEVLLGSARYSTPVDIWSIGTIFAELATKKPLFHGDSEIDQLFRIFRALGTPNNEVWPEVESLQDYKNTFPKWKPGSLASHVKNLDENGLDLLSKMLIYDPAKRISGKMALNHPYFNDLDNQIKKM
Chain of CDK1/CCNB1 (P14635 whole entry partner): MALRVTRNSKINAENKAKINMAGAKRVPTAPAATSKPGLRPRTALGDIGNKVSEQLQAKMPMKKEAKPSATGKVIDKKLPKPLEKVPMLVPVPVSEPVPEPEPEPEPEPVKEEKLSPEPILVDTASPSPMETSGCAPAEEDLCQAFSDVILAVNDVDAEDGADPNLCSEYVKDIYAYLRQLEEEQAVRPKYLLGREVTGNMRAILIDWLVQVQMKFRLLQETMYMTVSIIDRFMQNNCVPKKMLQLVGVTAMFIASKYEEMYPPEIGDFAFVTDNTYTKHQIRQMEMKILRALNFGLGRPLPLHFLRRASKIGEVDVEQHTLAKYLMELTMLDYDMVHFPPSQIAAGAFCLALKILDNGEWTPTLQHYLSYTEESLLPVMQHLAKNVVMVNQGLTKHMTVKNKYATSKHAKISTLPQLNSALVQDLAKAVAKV
Method: as §1
as §2, with “were 0.5” for “were 3”, “nM CDK1/CCNB1,” for “nM CDK2/CCNE1,”
as §3, §4

[3] = 25-250 nM marked x, read-out: CDK2/CCNE IC50 25-250 nM
[4] = >250 nM marked x, read-out: CDK1/CCNB IC50 >250 nM
[5] = <25 nM, read-out: CDK2/CCNE IC50 <25 nM
[6] = 25-250 nM marked x, read-out: CDK1/CCNB IC50 25-250 nM

In the case of `CS(=O)(=O)N1CCC(Nc2cc3c(N4CCCCC4CO)nccc3cn2)CC1` (racemic) [Ex 56, (1-(7-((1-(methylsulfonyl)piperidin-4-yl)amino)-2,6-naphthyridin-1-yl)piperidin-2-yl)methanol], the pIC50 [1, 3] was 6.60 to 7.60 and the pIC50 [2, 4] was under 6.60.
`CS(=O)(=O)N1CCC(Nc2cc3c(N4CCCC4CO)nccc3cn2)CC1` (racemic) [Ex 57, (1-(7-((1-(methylsulfonyl)piperidin-4-yl)amino)-2,6-naphthyridin-1-yl)pyrrolidin-2-yl)methanol] showed a pIC50 [1, 3] of 6.60 to 7.60 and a pIC50 [2, 4] of under 6.60.
`CS(=O)(=O)N1CCC(Nc2cc3c(C(=O)N4CCC(C#N)C4)nccc3cn2)CC1` (racemic) [Ex 94, 1-(7-((1-(methylsulfonyl)piperidin-4-yl)amino)-2,6-naphthyridine-1-carbonyl)pyrrolidine-3-carbonitrile] was tested, and the pIC50 [1, 3] was 6.60 to 7.60 and the pIC50 [2, 4] was under 6.60.
With `CS(=O)(=O)N1CCC(Nc2cc3c(C(=O)N4CCCC(C#N)C4)nccc3cn2)CC1` (racemic) [Ex 98, 1-(7-((1-(methylsulfonyl)piperidin-4-yl)amino)-2,6-naphthyridine-1-carbonyl)piperidine-3-carbonitrile] the pIC50 [1, 3] was 6.60 to 7.60 and the pIC50 [2, 4] was under 6.60.
Molecule `C=CS(=O)(=O)N1CCC(Nc2cc3c(N4CCC(OC(C)=O)C4)nccc3cn2)CC1` (racemic) [Ex 104, 1-(7-((1-(vinylsulfonyl)piperidin-4-yl)amino)-2,6-naphthyridin-1-yl)pyrrolidin-3-yl acetate] has a pIC50 [1, 3] of 6.60 to 7.60 and a pIC50 [2, 4] of under 6.60.
`N#CC1CCN(c2nccc3cnc(Nc4cccc(C(=O)NC5CCSC5=O)c4)cc23)CC1` (racemic) [Ex 112, 3-((5-(4-cyanopiperidin-1-yl)-2,6-naphthyridin-3-yl)amino)-N-(2-oxotetrahydrothiophen-3-yl)benzamide] gave a pIC50 [1, 3] of 6.60 to 7.60 and a pIC50 [2, 4] of under 6.60.
For `C=CS(=O)(=O)c1ccc(Nc2cc3c(N4CCCC(C#N)C4)nccc3cn2)cc1` (racemic) [Ex 123, 1-(7-((4-(vinylsulfonyl)phenyl)amino)-2,6-naphthyridin-1-yl)piperidine-3-carbonitrile], the pIC50 [1, 3] was 6.60 to 7.60 and the pIC50 [2, 4] was under 6.60.
In the case of `CS(=O)(=O)c1ccc(Nc2cc3c(C4CCC(C#N)CC4)nccc3cn2)cc1` (racemic) [Ex 142, 4-(7-((4-(methylsulfonyl)phenyl)amino)-2,6-naphthyridin-1-yl)cyclohexane-1-carbonitrile], the pIC50 [1, 5] was over 7.60 and the pIC50 [2, 6] was 6.60 to 7.60.
Work on `COC(=O)C1CSC(c2nccc3cnc(Nc4ccc(S(C)(=O)=O)cc4)cc23)=N1` (racemic) [Ex 169, methyl 2-(7-((4-(methylsulfonyl)phenyl)amino)-2,6-naphthyridin-1-yl)-4,5-dihydrothiazole-4-carboxylate] yielded a pIC50 [1, 3] of 6.60 to 7.60 and a pIC50 [2, 4] of under 6.60.
In the case of `Cc1c(-c2nccc3cnc(Nc4ccc(S(C)(=O)=O)cc4)cc23)ccc2nn(CC3CCNC3)cc12` (racemic) [Ex 195, 5-(4-methyl-2-(pyrrolidin-3-ylmethyl)-2H-indazol-5-yl)-N-(4-(methylsulfonyl)phenyl)-2,6-naphthyridin-3-amine], the pIC50 [1, 3] was 6.60 to 7.60 and the pIC50 [2, 4] was under 6.60.
`CS(=O)(=O)c1ccc(Nc2cc3c([C@@H]4CCC[C@H](O)C4)nccc3cn2)cc1` (racemic) [Ex 203, (1S,3R)-3-(7-((4-(methylsulfonyl)phenyl)amino)-2,6-naphthyridin-1-yl)cyclohexan-1-ol (cis, racemic)] was tested, and the pIC50 [1, 3] was 6.60 to 7.60 and the pIC50 [2, 4] was under 6.60.
For `CS(=O)(=O)c1ccc(Nc2cc3c(C4CCCC(=O)C4)nccc3cn2)cc1` (racemic) [Ex 204, 3-(7-((4-(methylsulfonyl)phenyl)amino)-2,6-naphthyridin-1-yl)cyclohexan-1-one], the pIC50 [1, 3] was 6.60 to 7.60 and the pIC50 [2, 4] was under 6.60.
`C=CS(=O)(=O)c1ccc(Nc2cc3c(N4CCC(O)C4)nccc3cn2)cc1` (racemic) [Ex 211, 1-(7-((4-(vinylsulfonyl)phenyl)amino)-2,6-naphthyridin-1-yl)pyrrolidin-3-ol] was tested, and the pIC50 [1, 3] was 6.60 to 7.60 and the pIC50 [2, 4] was under 6.60.
`CS(=O)(=O)N1CCC(Nc2cc3c(N4CCC(C(N)=O)C4)nccc3cn2)CC1` (racemic) [Ex 260, 1-(7-((1-(methylsulfonyl)piperidin-4-yl)amino)-2,6-naphthyridin-1-yl)pyrrolidine-3-carboxamide] showed a pIC50 [1, 3] of 6.60 to 7.60 and a pIC50 [2, 4] of under 6.60.
Molecule `COc1cc(S(=N)(=O)C2COC2)ccc1Nc1cc2c(C#Cc3ccc4c(c3)NC(=O)C43CC3)nccc2cn1` (single isomer, unassigned) [Ex 324, 6'-((7-((2-methoxy-4-(oxetane-3-sulfonimidoyl)phenyl)amino)-2,6-naphthyridin-1-yl)ethynyl)spiro[cyclopropane-1,3'-indolin]-2'-one] has a pIC50 [2, 6] of 6.60 to 7.60.
`CC(C)S(=N)(=O)c1ccc(Nc2cc3c(C#Cc4ccc5c(c4)NC(=O)C5(C)CO)nccc3cn2)cc1` (single isomer, unassigned) [Ex 331, 3-(hydroxymethyl)-3-methyl-6-((7-((4-(propan-2-ylsulfonimidoyl)phenyl)amino)-2,6-naphthyridin-1-yl)ethynyl)indolin-2-one] gave a pIC50 ([2]; <25 nM, read-out: CDK1/CCNB IC50 <25 nM) of over 7.60.
Work on `CCC1(CC)C(=O)Nc2cc(C#Cc3nccc4cnc(Nc5ccc(S(=N)(=O)CC)cc5)cc34)ccc21` (single isomer, unassigned) [Ex 428, 3,3-diethyl-6-((7-((4-(ethylsulfonimidoyl)phenyl)amino)-2,6-naphthyridin-1-yl)ethynyl)indolin-2-one] yielded a pIC50 ([2]; x = IC50 >250 nM, read-out: CDK1/CCNB IC50 (>250 nM column)) of under 6.60.
Molecule `CCN(C)c1nccc2cnc(NC3CCN(S(C)(=O)=O)CC3)cc12` [Ex 38, N1-ethyl-N1-methyl-N7-(1-(methylsulfonyl)piperidin-4-yl)-2,6-naphthyridine-1,7-diamine] has a pIC50 [1, 5] of over 7.60 and a pIC50 [2, 6] of 6.60 to 7.60.
`CS(=O)(=O)N1CCC(Nc2cc3c(N(CO)Cc4ccccc4)nccc3cn2)CC1` [Ex 53, (benzyl(7-((1-(methylsulfonyl)piperidin-4-yl)amino)-2,6-naphthyridin-1-yl)amino)methanol] gave a pIC50 [1, 3] of 6.60 to 7.60 and a pIC50 [2, 4] of under 6.60.
`CC1(O)CCN(c2nccc3cnc(NC4CCN(S(C)(=O)=O)CC4)cc23)CC1` [Ex 54, 4-methyl-1-(7-((1-(methylsulfonyl)piperidin-4-yl)amino)-2,6-naphthyridin-1-yl)piperidin-4-ol] gave a pIC50 [1, 3] of 6.60 to 7.60 and a pIC50 [2, 4] of under 6.60.
`CN(Cc1ccccc1)C1CCN(c2nccc3cnc(NC4CCN(S(C)(=O)=O)CC4)cc23)CC1` [Ex 55, 5-(4-(benzyl(methyl)amino)piperidin-1-yl)-N-(1-(methylsulfonyl)piperidin-4-yl)-2,6-naphthyridin-3-amine] gave a pIC50 [1, 3] of 6.60 to 7.60 and a pIC50 [2, 4] of under 6.60.
`CS(=O)(=O)N1CCC(Nc2cc3c(N4CCS(=O)(=O)CC4)nccc3cn2)CC1` [Ex 59, 4-(7-((1-(methylsulfonyl)piperidin-4-yl)amino)-2,6-naphthyridin-1-yl)thiomorpholine 1,1-dioxide] gave a pIC50 ([1]; >250 nM marked x, read-out: CDK2/CCNE IC50 >250 nM) of under 6.60 and a pIC50 [2, 4] of under 6.60.
For `CS(=O)(=O)N1CCC(Nc2cc3c(N4CCN(CCO)CC4)nccc3cn2)CC1` [Ex 60, 2-(4-(7-((1-(methylsulfonyl)piperidin-4-yl)amino)-2,6-naphthyridin-1-yl)piperazin-1-yl)ethan-1-ol], the pIC50 [1, 3] was 6.60 to 7.60 and the pIC50 [2, 4] was under 6.60.
With `CS(=O)(=O)N1CCC(Nc2cc3c(C(=O)N4CCCCC4)nccc3cn2)CC1` [Ex 97, (7-((1-(methylsulfonyl)piperidin-4-yl)amino)-2,6-naphthyridin-1-yl)(piperidin-1-yl)methanone] the pIC50 [2, 4] was under 6.60.

— patent US20260325533A1, “CDK INHIBITOR COMPOUNDS” (ALEKSIA THERAPEUTICS, INC., priority 2023, published 2026)
